Data: paper PMC4864078, “De Novo Transcriptome Analysis and Detection of Antimicrobial Peptides of the American Cockroach Periplaneta americana (Linnaeus)” (PLoS ONE, 2016)
Entries after “also recorded” stand apart in the source; their conditions may differ.

Legend:
[1] = test system: C. albicans (ATCC 14053); assay type: cell-based, Candida albicans; settings: Mueller-Hinton Broth, 2 × 10^4 CFU/mL, 18 h at 37°C, visible turbidity, complete growth inhibition
Description: (§1) The bacterial strains E. coli (KACC 13821, ATCC 11775) and Staphylococcus aureus (KACC 10768, ATCC 25923), and the yeast strain Candida albicans (KCTC 7121, ATCC 14053) were purchased from the Korean Agricultural Culture Collection (KACC) and Korean Collection for Type Cultures (KCTC). Both bacteria and the yeast were cultivated overnight in tryptic soy broth (TSB; Difco, USA) at 200 rpm in a 37°C shaking incubator to the stationary phase. Bacteria were cultivated for 3 h in fresh TSB medium under the same condition to the log phase. The strains were stored with 15% glycerol at −70°C until use.
(§2) In addition, antimicrobial activities of the peptides were also tested by broth microdilution assays against E. coli, S. aureus, and C. albicans. Briefly, microbes were grown overnight in Mueller-Hinton Broth (MHB) to the onset of the stationary phase with shaking at 200 rpm. The cultures were diluted in fresh MHB to a final concentration of 2 × 10^4 CFU/mL. A stock solution of each peptide was prepared to a concentration of 640 μg/mL in 0.01% acetic acid, and was then serially diluted two-fold to reach a concentration of 10 μg/mL. After 90-μL aliquots of the microbial suspension were dispensed into each well of a 96-well polypropylene microtiter plate, 10 μL of the peptide solution was added. The antimicrobial activities of the peptides were assessed by measuring the visible turbidity in each well of the plate after 18 h of incubation at 37°C. Minimum inhibitory concentrations (MICs) are expressed as a specific value that caused complete growth inhibition.

[2] = test system: human keratinocytes; assay: Cell viability assay (MTS); assay type: cell-based; settings: 24 h treatment, 25, 50, 100 and 200 μg/mL, OD 490 nm
Description: (§3) The human keratinocytes were maintained in Dulbecco’s Modified Eagle Medium supplemented with 10% fetal bovine serum (FBS; Hyclone, USA), penicillin G (100 U/mL), and streptomycin (100 μg/mL) (Invitrogen, USA). Human umbilical vein endothelial cells (HUVECs) were grown on 0.1% gelatin-coated cell culture dishes in M199 medium (Welgene, Korea) supplemented with 20% (v/v) FBS, 3 ng/mL basic fibroblast growth factor (R&D Systems, USA), 5 U/mL of heparin (Sigma, USA), and a penicillin-streptomycin-amphotericin B mixture (100 U/mL potassium penicillin, […] streptomycin sulfate, and 250 ng/mL amphotericin B; Lonza, Belgium) as a complete medium. Cells were cultured at 37°C in a humidified incubator with 5% CO2. Cells were plated in 96-well tissue culture plates (2 × 10^4 cells per well). After 1 day, they were treated with various concentrations (25, 50, 100, and 200 μg/mL) of peptides. Melittin (Sigma, USA) was used as the positive control. After incubation for 24 h, the viability of the cells was assessed by the Cell Titer 96 AQueous One Solution Cell Proliferation Assay according to the manufacturer’s protocol (Promega, USA). The optical density at 490 nm was measured with a microplate reader (Beckman DTX 8800 Multi Detector, USA).

[3] = test system: Human umbilical vein endothelial cells (HUVECs); assay: Cell viability assay (MTS); assay type: cell-based; settings: 24 h treatment, 25, 50, 100 and 200 μg/mL, OD 490 nm
Description: as §3

[4] = test system: S. aureus; assay: Radial diffusion assay; assay type: cell-based, Staphylococcus aureus; settings: diameter of growth inhibition zone after 12 h; compared with melittin; repeated three times
Description: as §1
(§4) The radial diffusion assay was performed to test the antimicrobial activities of peptides, as described previously with slight modifications. In brief, bacteria and yeast strains were grown to the mid-logarithmic phase in TSB at 37°C and then washed twice with 10 mM Tris-HCl (containing 5 mM glucose, pH 7.4). A total of 4 × 10^6 CFU was added to 10 mL of an underlay agarose gel [0.03% (w/v) TSB, 1% (w/v) agarose (Sigma, USA), and 0.02% (v/v) Tween 20 (Sigma, USA) in 10 mM Tris-HCl]. The underlay gel was poured into a 100-mm INTEGRID^TM Petri dish. After agarose solidification, 3-mm-diameter wells were punched and 5 μL of each peptide solution was added to each well. Buffer alone was used as a negative control. Plates were incubated at 37°C for 3 h to allow for diffusion of the peptides. The underlay gel was then covered with 10 mL of nutrient-rich agar overlay (6% TSB and 1% agarose in 10 mM Tris-HCl). […] This experiment was repeated at least 3 times and the same results were obtained.

[5] = test system: Gram-negative bacteria, Gram-positive bacteria, and yeast; assay: Radial diffusion assay, statement over all three microbes; assay type: cell-based; settings: increased in a dose-dependent manner, cleared zone after 12 h at 37°C
Description: as §1, §4

[6] = test system: rat erythrocytes; assay: Hemolytic assay; assay type: cell-based; settings: 100 μg/mL, compared to melittin, 30 min at 37°C, A540
Description: This experiment was approved by the Institutional Animal Care and Use Committee (IACUC) of the National Academy of Agricultural Sciences (approval number: NAAS-1114). The hemolytic activity of the peptides was determined by monitoring the release of hemoglobin from rat erythrocytes at 540 nm. For the hemolytic assay, 20 μL of each peptide solution at a predetermined concentration was added to 180 μL of a 2.5% (v/v) suspension of rat erythrocytes in phosphate-buffered saline (PBS). Melittin (Sigma, USA), a hemolytic and α-helical peptide isolated from bee venom, was used as the positive control. This mixture was incubated for 30 min at 37°C, and 600 μL of PBS was then added to each tube. After 3 min of centrifugation at 10,000 ×g, the supernatant was […], and the absorbance was measured at 540 nm. Evaluations were made from the results of at least three independent experiments, each carried out in triplicate.

[7] = test system: S. aureus (ATCC 25923); assay: Broth microdilution assay (MIC); assay type: cell-based, Staphylococcus aureus; settings: Mueller-Hinton Broth, 2 × 10^4 CFU/mL, 18 h at 37°C, visible turbidity, complete growth inhibition
Description: as §1, §2

[8] = test system: C. albicans; assay: Radial diffusion assay; assay type: cell-based, Candida albicans; settings: diameter of growth inhibition zone after 12 h; repeated three times
Description: as §1, §4

[9] = test system: E. coli; assay: Radial diffusion assay; assay type: cell-based, Escherichia coli; settings: diameter of growth inhibition zone after 12 h; compared with melittin; repeated three times
Description: as §1, §4

[10] = test system: E. coli (ATCC 11775); assay: Broth microdilution assay (MIC); assay type: cell-based, Escherichia coli; settings: Mueller-Hinton Broth, 2 × 10^4 CFU/mL, 18 h at 37°C, visible turbidity, complete growth inhibition
Description: as §1, §2

Compound | Minimum Inhibitory Concentration (MIC) [1] [µg/mL] | Cell viability of human keratinocytes [2] | Cell viability of HUVECs [3] | Antimicrobial activity in S. aureus (radial diffusion assay) [4] | Antimicrobial activity in radial diffusion assay [5] | Hemolytic activity [6] | Minimum Inhibitory Concentration (MIC) [7] [µg/mL] | Antimicrobial activity against C. albicans (radial diffusion assay) [8] | Antimicrobial activity in E. coli (radial diffusion assay) [9] | Minimum Inhibitory Concentration (MIC) [10] [µg/mL]
CC[C@H](C)[C@H](NC(=O)CN)C(=O)NCC(=O)N[C@@H](C)C(=O)N[C@H](C(=O)N[C@@H](CC(C)C)C(=O)N[C@@H](CCCCN)C(=O)N[C@H](C(=O)N[C@@H](CC(C)C)C(=O)N[C@H](C(=O)N[C@H](C(=O)NCC(=O)N[C@@H](CC(C)C)C(=O)N1CCC[C@H]1C(=O)N[C@@H](C)C(=O)N[C@@H](CC(C)C)C(=O)N[C@H](C(=O)N[C@@H](CO)C(=O)N[C@@H](Cc1c[nH]c2ccccc12)C(=O)N[C@H](C(=O)N[C@@H](CCCCN)C(=O)N[C@@H](CCCNC(=N)N)C(=O)N[C@@H](CCCCN)C(=O)N[C@@H](CCCNC(=N)N)C(=O)N[C@@H](CCC(N)=O)C(=O)N[C@@H](CCC(N)=O)C(N)=O)[C@@H](C)CC)[C@@H](C)CC)[C@@H](C)O)[C@@H](C)O)C(C)C)C(C)C [Melittin] | 8 | more susceptible | more susceptible |  |  |  |  |  |  | 
KRMKLNAKKLSFCDHLNSYLNLSPTLFIHNSSKQWSHWLWHNGIRI [ISGCock_Contig15_1337–2, synthetic peptide, second AMPA stretch of a predicted novel AMP from a P. americana transcript] | 64 |  |  | greater than that of melittin | antimicrobial activity | relatively low compared to that of melittin | >64 | strong antimicrobial activity | stronger antimicrobial activity than melittin; also recorded: highest antimicrobial activity of the tested peptides | >64
